Laboratory results: patent publication US20250382273A1 (INSTITUT NATIONAL DE LA SANTE ET DE LA RECHERCHE MEDICALE, priority 2022, published 2025)

system: M. tuberculosis H37Rv_DdnL49P_gfp; type: cell-based, Mycobacterium tuberculosis; conditions: in combination with pretomanid, unit inferred; read-out: average EC50 H37Rv_DdnL49P_gfp

SMILES	EC50
CCOc1ccc2nc(NC(=O)[C@@H]3C4C=CC(C4)[C@@H]3C(=O)O)sc2c1 (some centres unmarked) [Example 7, 3-[(6-ethoxy-1,3-benzothiazol-2-yl)carbamoyl]bicyclo[2.2.1]hept-5-ene-2-carboxylic acid]	1000 nM

same assay, conditions: read-out: EC50 H37Rv_DdnL49P_gfp

SMILES	EC50
Cc1ccc2nc(NC(=O)[C@@H]3C4C=CC(C4)[C@@H]3C(=O)O)sc2c1 (mixture of isomers) [Example 1, 3-[(6-methyl-1,3-benzothiazol-2-yl)carbamoyl]bicyclo[2.2.1]hept-5-ene-2-carboxylic acid]	5000 to 10000 nM
O=C(Nc1nc2ccc(-c3cccc(C(F)(F)F)c3)cc2s1)[C@@H]1C2C=CC(C2)[C@@H]1C(=O)O (some centres unmarked) [Example 59, 3-[[6-[3-(trifluoromethyl)phenyl]-1,3-benzothiazol-2-yl]carbamoyl]bicyclo[2.2.1]hept-5-ene-2-carboxylic acid]	1000 to 5000 nM
Cc1ccnc(Oc2ccc3nc(N4C(=O)[C@@H]5C6C=CC(C6)[C@@H]5C4=O)sc3c2)c1 [Example 30]	< 1000 nM
Cc1cccc2sc(NC(=O)[C@@H]3C4C=CC(C4)[C@@H]3C(=O)O)nc12 (some centres unmarked) [Example 16, 3-[(4-methyl-1,3-benzothiazol-2-yl)carbamoyl]bicyclo[2.2.1]hept-5-ene-2-carboxylic acid]	1000 to 5000 nM
O=C1[C@@H]2[C@H](C(=O)N1c1nc3ccc(Oc4ncccc4C(F)(F)F)cc3s1)[C@@H]1C=C[C@H]2C1 [Example 26, (1R,2S,6R,7S)-4-[6-[[3-(trifluoromethyl)-2-pyridyl]oxy]-1,3-benzothiazol-2-yl]-4-azatricyclo[5.2.1.02,6]dec-8-ene-3,5-dione]	1000 to 5000 nM
O=C(Nc1nc2ccc(Oc3ccccc3)cc2s1)[C@@H]1C2C=CC(C2)[C@@H]1C(=O)O (stereo partly drawn) [Example 18, [2-hydroxy-1,1-bis(hydroxymethyl)ethyl]ammonium: (1R,2S,3R,4S)-3-[(6-phenoxy-1,3-benzothiazol-2-yl)carbamoyl]bicyclo[2.2.1]hept-5-ene-2-carboxylate]	< 1000 nM
O=C1[C@@H]2[C@H](C(=O)N1c1nc3ccc(-c4ccsc4)cc3s1)[C@@H]1C=C[C@H]2C1 [Example 68, (1R,2S,6R,7S)-4-[6-(3-thienyl)-1,3-benzothiazol-2-yl]-4-azatricyclo[5.2.1.02,6]dec-8-ene-3,5-dione]	1000 to 5000 nM
CCOc1ccc2nc(NC(=O)[C@@H]3C4C=CC(C4)[C@@H]3C(=O)O)sc2c1 (some centres unmarked) [Example 7, 3-[(6-ethoxy-1,3-benzothiazol-2-yl)carbamoyl]bicyclo[2.2.1]hept-5-ene-2-carboxylic acid]	< 1000 nM
Cc1ccc(-c2ccc3nc(NC(=O)[C@@H]4C5C=CC(C5)[C@@H]4C(=O)O)sc3c2)cc1 (some centres unmarked) [Example 53, 3-[[6-(p-tolyl)-1,3-benzothiazol-2-yl]carbamoyl]bicyclo[2.2.1]hept-5-ene-2-carboxylic acid]	< 1000 nM
O=C1[C@@H]2C3C=CC(C3)[C@@H]2C(=O)N1c1nc2ccc(Nc3ccc(F)cn3)cc2s1 [Example 87, 4-[6-[(5-fluoro-2-pyridyl)amino]-1,3-benzothiazol-2-yl]-4-azatricyclo[5.2.1.02,6]dec-8-ene-3,5-dione]	< 1000 nM
O=C(Nc1nc2ccc(F)cc2s1)[C@@H]1C2C=CC(C2)[C@@H]1C(=O)O (some centres unmarked) [Example 42, 3-[(6-fluoro-1,3-benzothiazol-2-yl)carbamoyl]bicyclo[2.2.1]hept-5-ene-2-carboxylic acid]	1000 to 5000 nM
COC(=O)c1ccc2nc(NC(=O)[C@@H]3C4C=CC(C4)[C@@H]3C(=O)O)sc2c1 (some centres unmarked) [Example 41, 3-[(6-methoxycarbonyl-1,3-benzothiazol-2-yl)carbamoyl]bicyclo[2.2.1]hept-5-ene-2-carboxylic acid]	1000 to 5000 nM
O=C1[C@@H]2C3C=CC(C3)[C@@H]2C(=O)N1c1nc2c(O)cccc2s1 [Example 74]	1000 to 5000 nM
